Laboratory results as given in patent publication US20120269815A1, “NEUROTROPHINS AND USES THEREOF” (Regents of the University of Minnesota, priority 2008, published 2012).
No end group written: not given here.

Key:
p75^NTR = target: T1, p75^NTR (Homo sapiens, UniProt P08138); experiment: Fluorescence-labeled TUF1 peptide binding to COS7 cells expressing p75NTR; details: labeled peptide 5 nM, 90 min, COS7 cells transfected with pCMV-SPORT6-p75
T1 construct: host or cells: COS7
T1 sequence (P08138 29-427): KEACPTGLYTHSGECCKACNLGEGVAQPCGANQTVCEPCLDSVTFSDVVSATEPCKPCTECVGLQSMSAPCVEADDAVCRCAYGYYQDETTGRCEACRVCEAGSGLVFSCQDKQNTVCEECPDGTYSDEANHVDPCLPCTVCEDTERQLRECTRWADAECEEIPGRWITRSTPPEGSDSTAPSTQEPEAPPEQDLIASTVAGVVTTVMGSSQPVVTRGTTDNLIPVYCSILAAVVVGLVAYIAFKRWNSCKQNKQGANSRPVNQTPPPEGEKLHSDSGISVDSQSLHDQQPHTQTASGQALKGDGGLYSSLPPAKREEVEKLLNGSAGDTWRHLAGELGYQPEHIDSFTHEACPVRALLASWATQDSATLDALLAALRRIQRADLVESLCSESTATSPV
Protocol: COS7 cells were seeded at 10,000 cells/well onto a 18 mm coverslip in a 12-well plate. Cells were allowed to settle overnight in a cell culture incubator (NuAire NU-8600, NuAire, Inc., Plymouth, Minn.) set at 37° C. and 5% CO2. Cells were transfected with pCMV-eGFP (Clontech Laboratories, Inc., Mountain View, Calif.) or pCMV-SPORT6-p75 (ATCC) using Fugene HD (Roche Diagnostics Corp., Indianapolis, Ind.) and were incubated overnight. The binding assays were carried out according to Horton et al. with modifications. Synthetic TUF1 peptides (TUF1[43-54] (SEQ ID NO:1) and TUF1[24-40] (SEQ ID NO:3) were generated (via Sigma Genosys, Sigma-Aldrich Co. St. Louis, Mo.) and were conjugated per manufacturer's recommendation with DyLight 549 NHS Ester (Thermo Fisher Scientific, Waltham, Mass.), which have similar spectra to Cy3 dye. Unconjugated dye was removed with a dye removal column (Thermo Fisher Scientific, Waltham, Mass.). Labeled peptides were diluted to 5 nM in 0.15 M Sucrose/PBS and added (1.0 ml/well) to transfected COS7 cells. The binding reaction was incubated in the dark at room temperature for 90 minutes. Cells were rinsed thoroughly with PBS+0.05% Tween-20 to remove unbound peptide. Cells were then fixed with 4% Paraformaldehyde (5 minutes).
Following fixation, cells were permeabilized in PBS+0.1% Tween-20 for 10 minutes, rinsed thoroughly with PBS, and blocked in BSA (10 mg/ml) for 10 minutes. Cells were incubated with rabbit anti-p75^NTR antibody (1:10,000 dilution) for 30 minutes. Excess antibody was removed with PBS washes. Cells were then incubated with Alexa-488 goat anti-rabbit antibody (1:500 dilution, Invitrogen). Cells were again rinsed thoroughly with PBS and mounted in Vectashield mounting media plus DAPI (Vector Laboratories, Inc., Burlingame, Calif.).
COS7 cells were seeded at 10,000 cells/well onto an 18 mm coverslip in a 12-well plate. Cells were allowed to settle overnight in a cell culture incubator (NuAire NU-8600, NuAire, Inc., Plymouth, Minn.) set at 37° C. and 5% CO2. Cells were transfected with pCMV-eGFP (Clontech Laboratories, Inc., Burlingame, Calif.) or pCMV-SPORT6-p75 (ATCC) using Fugene HD (Roche Diagnostics Corp., Indianapolis, Ind.) and were incubated overnight. The binding assays were carried out according to Horton et al. with modifications. Synthetic TUF1 peptides (TUF1[43-54] (SEQ ID NO:1) and TUF1[24-40] (SEQ ID NO:3)) were generated (via Sigma Genosys, Sigma-Aldrich, St. Louis, Mo.) and were conjugated per manufacturer's recommendation with DyLight 549 NHS Ester (Thermo Fisher Scientific Inc., Waltham, Mass.), which have similar spectra to Cy3 dye. Unconjugated dye was removed with a dye removal column (Thermo Fisher Scientific Inc., Waltham, Mass.). Labeled peptides were diluted to 5 nM in 0.15M Sucrose/PBS and added (1.0 ml/well) to transfected COS7 cells. The binding reaction was incubated in the dark at room temperature for 90 min. Cells were rinsed thoroughly with PBS+0.05% Tween-20 to remove unbound peptide. Cells were then fixed with 4% Paraformaldehyde (5 minutes).
Following fixation, cells were permeabilized in PBS+0.1% Tween-20 for 10 minutes, rinsed thoroughly with PBS, and blocked in BSA (10 mg/ml) for 10 minutes. Cells were incubated with rabbit anti-p75^NTR antibody (1:10,000 dilution) for 30 minutes. Excess antibody was removed with PBS washes. Cells were then incubated with Alexa-488-goat anti-rabbit antibody (1:500 dilution, Invitrogen Corp., Carlsbad, Calif.). […]

[1] = system: Cortical neurons and glia; experiment: Glutamate-induced excitotoxicity in cultured cortical neurons; assay type: cell-based, mice; details: 500 μM glutamate, then 0.2-1.8 μM peptide for 24 hours
Protocol: To assess the trophic effect of TUF1 peptide on primary culture neurons, we assayed the effect of TUF1 supplementation on glutamate-induced excitotoxicity in neuronal cultures. Cortical neurons and glia were cultured from newborn mice for seven days. Cultures were then treated with 500 μM glutamate (diluted in N2tox solution, Invitrogen Corp., Carlsbad, Calif.) and incubated at 37° C. for ten minutes. Glutamate was removed from cultures by two washes with EBSS media (Invitrogen Corp., Carlsbad, Calif.). Cultures were then incubated in EBSS media supplemented with 0.0 μM, 0.2 μM, 0.4 μM, 0.9 μM, or 1.8 μM TUF1 peptide for 24 hours. Surviving neurons from cultures were manually counted by Trypan Blue exclusion using an inverted microscope. Values are means±SD, n=6-8/group.

Sequence: AYKSYVRALPLL [TUF1[43-54]]
- binding to p75^NTR (p75^NTR): binds more readily to p75 neurotrophic receptor
- binding to p75^NTR (p75^NTR; listed as TUF1^43-54): found to bind the p75^NTR
- binding to p75^NTR (p75^NTR; listed as TUF1 peptide): binds p75 receptor expressed in COS cells
- neural excitotoxicity induced by glutamate [1]: reduces neural excitotoxicity induced by glutamate
